Experimental data published in patent US20080275058A1, “N-Substituted-1H-Quinoline-2,4-Diones, Preparation Method Thereof, And Pharmaceutical Composition Containing The Same” (KOREA RESEARCH INSTITUTE OF CHEMICAL TECHNOLOGY, priority 2005, published 2008).
Read-outs that look alike come from different tables or passages of the source.

Experiments:
[1] = biological target: T1, Human serotonin 5-HT6 receptor (Homo sapiens, UniProt P50406); assay: [3H]LSD binding assay on cloned 5-HT6 receptor membranes
T1 construct: made in house; host or cells: insect Sf21 cells (baculovirus vector BacPAK8)
T1 sequence (P50406 whole entry): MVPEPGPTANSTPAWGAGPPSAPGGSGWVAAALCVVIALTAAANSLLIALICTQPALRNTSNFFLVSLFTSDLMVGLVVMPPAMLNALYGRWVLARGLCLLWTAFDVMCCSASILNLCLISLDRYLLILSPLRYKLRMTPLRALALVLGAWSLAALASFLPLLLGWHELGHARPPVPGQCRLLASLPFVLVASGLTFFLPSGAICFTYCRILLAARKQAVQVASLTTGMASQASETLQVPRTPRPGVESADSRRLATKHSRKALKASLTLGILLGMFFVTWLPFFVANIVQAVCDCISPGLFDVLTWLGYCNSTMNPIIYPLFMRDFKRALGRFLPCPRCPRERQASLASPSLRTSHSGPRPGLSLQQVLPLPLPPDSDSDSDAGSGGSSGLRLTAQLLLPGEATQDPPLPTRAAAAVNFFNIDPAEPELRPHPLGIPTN

5-HT7 = biological target: T2, 5-HT7 (Homo sapiens, UniProt P34969); assay: Radioligand binding, 5-HT7 ([3H]LSD); conditions: Table 4; [3H]LSD 3 nM; read-out: Binding affinity, IC50 (nM) 5-HT7
T2 construct: purchased Euroscreen/BioSignal Packard Inc
T2 sequence (P34969 whole entry): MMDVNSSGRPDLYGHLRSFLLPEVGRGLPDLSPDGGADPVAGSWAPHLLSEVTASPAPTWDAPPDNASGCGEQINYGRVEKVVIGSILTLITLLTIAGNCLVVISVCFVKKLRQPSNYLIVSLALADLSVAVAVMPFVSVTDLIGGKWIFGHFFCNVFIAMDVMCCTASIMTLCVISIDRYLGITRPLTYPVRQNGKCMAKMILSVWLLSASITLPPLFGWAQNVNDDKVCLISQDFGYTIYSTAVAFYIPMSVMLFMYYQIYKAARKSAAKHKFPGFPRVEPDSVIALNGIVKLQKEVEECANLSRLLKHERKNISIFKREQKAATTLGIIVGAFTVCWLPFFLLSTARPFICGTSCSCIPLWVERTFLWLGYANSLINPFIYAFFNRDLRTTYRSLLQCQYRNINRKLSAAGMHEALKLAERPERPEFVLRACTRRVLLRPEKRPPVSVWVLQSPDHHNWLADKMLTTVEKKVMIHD

5-HT1a = biological target: T3, 5-HT1a (Homo sapiens, UniProt P08908); assay: Radioligand binding, 5-HT1a ([3H]8-OH-DPAT); conditions: Table 4; [3H]8-OH-DPAT 0.5 nM; read-out: Binding affinity, IC50 (nM) 5-HT1a
T3 construct: purchased Euroscreen/BioSignal Packard Inc
T3 sequence (P08908 1-422): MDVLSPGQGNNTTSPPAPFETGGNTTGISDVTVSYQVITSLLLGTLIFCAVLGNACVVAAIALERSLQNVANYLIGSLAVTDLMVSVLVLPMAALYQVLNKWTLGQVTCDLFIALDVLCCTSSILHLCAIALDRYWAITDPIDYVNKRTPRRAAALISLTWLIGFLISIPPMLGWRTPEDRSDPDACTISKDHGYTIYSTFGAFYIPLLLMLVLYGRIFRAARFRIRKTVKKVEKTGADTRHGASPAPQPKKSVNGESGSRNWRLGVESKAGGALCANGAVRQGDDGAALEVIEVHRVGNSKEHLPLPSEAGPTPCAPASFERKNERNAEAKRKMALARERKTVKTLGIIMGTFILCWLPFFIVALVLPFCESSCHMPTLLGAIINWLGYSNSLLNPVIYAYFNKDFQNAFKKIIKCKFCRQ
Protocol: Radioligand bindings were performed according to the test method provided by the supplier of receptor membrane (Euroscreen/BioSignal Packard Inc.). The detailed assay conditions and the results were shown in the following Table 3 and Table 4, respectively.

5-HT2a = biological target: T4, 5-HT2a (Homo sapiens, UniProt P28223); assay: Radioligand binding, 5-HT2a ([3H]Ketanserin); conditions: Table 4; [3H]Ketanserin 1 nM; read-out: Binding affinity, IC50 (nM) 5-HT2a
T4 construct: purchased Euroscreen/BioSignal Packard Inc
T4 sequence (P28223 whole entry): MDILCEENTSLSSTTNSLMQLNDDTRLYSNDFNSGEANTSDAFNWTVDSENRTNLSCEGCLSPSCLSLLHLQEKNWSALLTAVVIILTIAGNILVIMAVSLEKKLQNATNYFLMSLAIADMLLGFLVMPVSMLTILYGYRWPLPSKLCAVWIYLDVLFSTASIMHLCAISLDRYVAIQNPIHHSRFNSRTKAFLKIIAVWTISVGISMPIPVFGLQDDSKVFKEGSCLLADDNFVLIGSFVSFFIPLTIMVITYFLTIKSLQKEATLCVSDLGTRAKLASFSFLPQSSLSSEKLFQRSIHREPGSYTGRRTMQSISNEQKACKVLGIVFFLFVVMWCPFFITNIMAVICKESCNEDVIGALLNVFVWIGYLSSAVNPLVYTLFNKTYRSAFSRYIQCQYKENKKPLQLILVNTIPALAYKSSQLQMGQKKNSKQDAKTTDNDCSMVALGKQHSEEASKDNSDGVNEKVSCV

5-HT2c = biological target: T5, 5-HT2c (Homo sapiens, UniProt P28335); assay: Radioligand binding, 5-HT2c ([3H]Mesulergine); conditions: Table 4; [3H]Mesulergine 1 nM; read-out: Binding affinity, IC50 (nM) 5-HT2c
T5 construct: purchased Euroscreen/BioSignal Packard Inc
T5 sequence (P28335 33-458): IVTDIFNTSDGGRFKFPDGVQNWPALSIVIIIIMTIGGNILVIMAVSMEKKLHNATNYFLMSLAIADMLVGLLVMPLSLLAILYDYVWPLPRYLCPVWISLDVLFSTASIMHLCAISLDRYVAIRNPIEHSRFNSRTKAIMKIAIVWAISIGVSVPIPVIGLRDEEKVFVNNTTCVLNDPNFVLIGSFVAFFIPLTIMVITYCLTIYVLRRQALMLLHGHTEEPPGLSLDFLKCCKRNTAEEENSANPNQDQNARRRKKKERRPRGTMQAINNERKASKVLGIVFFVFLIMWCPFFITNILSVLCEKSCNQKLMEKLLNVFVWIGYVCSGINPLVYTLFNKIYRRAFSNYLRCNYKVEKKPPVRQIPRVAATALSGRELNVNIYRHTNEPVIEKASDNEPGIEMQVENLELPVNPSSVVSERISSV

D1 = D1 (Homo sapiens, UniProt P21728); assay: Radioligand binding, dopamine D1; conditions: Table 4; read-out: Binding affinity, IC50 (nM) D1
Sequence of D1 (P21728 whole entry): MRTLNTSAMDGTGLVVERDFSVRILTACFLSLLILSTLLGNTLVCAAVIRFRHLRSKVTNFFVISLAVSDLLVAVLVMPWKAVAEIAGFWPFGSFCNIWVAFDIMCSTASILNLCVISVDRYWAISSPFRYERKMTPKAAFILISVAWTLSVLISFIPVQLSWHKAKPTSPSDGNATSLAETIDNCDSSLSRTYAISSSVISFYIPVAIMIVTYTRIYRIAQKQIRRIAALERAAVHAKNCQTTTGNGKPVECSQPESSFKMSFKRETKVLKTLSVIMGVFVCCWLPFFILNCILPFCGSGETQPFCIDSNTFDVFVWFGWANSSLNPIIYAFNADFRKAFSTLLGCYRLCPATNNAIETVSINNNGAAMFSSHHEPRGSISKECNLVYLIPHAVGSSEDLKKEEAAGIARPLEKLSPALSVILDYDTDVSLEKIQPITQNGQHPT

hD2L = biological target: T6, hD2L (Homo sapiens, UniProt P14416); assay: Radioligand binding, dopamine D2 ([3H]spiperone); conditions: Table 4; [3H]spiperone 1 nM; read-out: Binding affinity, IC50 (nM) D2
T6 construct: purchased BioSignal Packard Inc., Montreal, Canada
T6 sequence (P14416 whole entry): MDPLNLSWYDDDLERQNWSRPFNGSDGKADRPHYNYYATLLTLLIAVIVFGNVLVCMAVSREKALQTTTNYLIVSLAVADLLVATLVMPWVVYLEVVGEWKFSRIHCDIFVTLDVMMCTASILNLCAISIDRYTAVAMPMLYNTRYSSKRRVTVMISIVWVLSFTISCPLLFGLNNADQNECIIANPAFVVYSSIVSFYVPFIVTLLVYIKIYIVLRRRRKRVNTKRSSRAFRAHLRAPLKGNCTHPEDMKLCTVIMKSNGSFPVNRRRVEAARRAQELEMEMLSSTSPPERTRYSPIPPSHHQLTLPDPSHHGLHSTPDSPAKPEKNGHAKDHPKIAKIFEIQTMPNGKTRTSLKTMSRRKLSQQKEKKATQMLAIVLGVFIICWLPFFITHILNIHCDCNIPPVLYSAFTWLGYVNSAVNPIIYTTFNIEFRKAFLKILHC
Protocol: (§1) 2-2: Binding assays of Dopamine Receptor Family
(§2) The radioligands used were [^3H] spiperone (for hD2L and hD3 receptors, 1 nM) and [^3H] YM-09151-2 (for hD4.2 receptor, 0.06 nM). Radioligand bindings were performed by the protocols provided by the supplier of receptor membranes (BioSignal Packard Inc., Montreal, Canada). Briefly, the buffer used in D2 or D3 receptor binding assay was 50 mM Tris-HCl (pH 7.4), 10 mM MgCl2, 1 mM EDTA, or 50 mM Tris-HCl (pH 7.4), 5 mM MgCl2, 5 mM EDTA, 5 mM KCl, 1.5 mM CaCl2, 120 mM NaCl, respectively. In [^3H] YM-09151-2 receptor binding assays, the buffer containing 50 mM Tris-HCl (pH 7.4), 5 mM MgCl2, 5 mM EDTA, 5 mM KCl and 1.5 mM CaCl2 was used. […] Competition binding studies were carried out with 7-8 concentrations of the test compound run in duplicate tubes, and isotherms from three assays were calculated by computerized nonlinear regression analysis (GraphPad Prism Program, San Diego, […]) to yield median inhibitory concentration (IC50) values.

hD3 = biological target: T7, hD3 (Homo sapiens, UniProt P35462); assay: Radioligand binding, dopamine D3 ([3H]spiperone); conditions: Table 4; [3H]spiperone 1 nM; read-out: Binding affinity, IC50 (nM) D3
T7 construct: purchased BioSignal Packard Inc., Montreal, Canada
T7 sequence (P35462 whole entry): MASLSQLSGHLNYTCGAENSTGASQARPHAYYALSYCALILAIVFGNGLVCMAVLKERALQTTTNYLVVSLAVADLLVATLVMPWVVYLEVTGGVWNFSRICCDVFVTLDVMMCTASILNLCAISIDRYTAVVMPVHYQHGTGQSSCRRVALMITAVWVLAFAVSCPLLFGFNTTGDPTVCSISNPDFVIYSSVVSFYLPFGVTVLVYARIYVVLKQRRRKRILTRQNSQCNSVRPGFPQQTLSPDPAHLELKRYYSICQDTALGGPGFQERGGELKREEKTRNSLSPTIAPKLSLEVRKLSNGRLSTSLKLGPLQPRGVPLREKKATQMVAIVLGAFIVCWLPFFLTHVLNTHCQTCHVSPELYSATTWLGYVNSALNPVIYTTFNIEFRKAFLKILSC
Protocol: as §1, §2

hD4.2 receptor = biological target: T8, hD4.2 receptor (Homo sapiens, UniProt P21917, DEL265-296); assay: Radioligand binding, dopamine D4 ([3H]YM-09151-2); conditions: Table 4; [3H]YM-09151-2 0.06 nM; read-out: Binding affinity, IC50 (nM) D4
T8 construct: purchased BioSignal Packard Inc., Montreal, Canada
T8 sequence (P21917 with tags, fused parts or gaps DEL265-296): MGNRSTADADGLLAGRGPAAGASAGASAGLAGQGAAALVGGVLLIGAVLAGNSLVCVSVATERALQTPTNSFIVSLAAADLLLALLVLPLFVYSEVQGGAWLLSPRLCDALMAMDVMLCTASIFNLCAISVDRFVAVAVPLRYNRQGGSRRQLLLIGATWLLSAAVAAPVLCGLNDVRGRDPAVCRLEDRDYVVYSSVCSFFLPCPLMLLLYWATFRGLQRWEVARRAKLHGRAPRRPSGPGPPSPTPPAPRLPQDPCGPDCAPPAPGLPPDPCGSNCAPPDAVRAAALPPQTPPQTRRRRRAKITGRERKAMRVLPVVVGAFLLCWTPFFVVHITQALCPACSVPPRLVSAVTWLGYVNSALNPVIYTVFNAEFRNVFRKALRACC
Protocol: as §1, §2

[2] = Table 2, 1.87 nM [3H]LSD, 37 C, 60 min, read-out: IC50 (nM), binding affinity to the 5-HT6 receptor
[3] = Table 4, read-out: Binding affinity, IC50 (nM) 5-HT6

Row | Compound | IC50 [1, 2] | IC50 [1, 3] | IC50 (5-HT7) | IC50 (5-HT1a) | IC50 (5-HT2a) | IC50 (5-HT2c) | IC50 (D1) | IC50 (hD2L) | IC50 (hD3) | IC50 (hD4.2 receptor) | melting point
1 | COc1ccc(C2(C)C(=O)c3c(N4CCNCC4)cc(Cl)cc3N(Cc3ccccc3Br)C2=O)cc1 (stereo not shown) [Example 35, 1-(2-Bromo-benzyl)-7-chloro-3-(4-methoxy-phenyl)-3-methyl-5-piperazin-1-yl-1H-quinoline-2,4-dione] | 9.2 nM | 16.4 nM | 7820 nM | 9510 nM | 7640 nM | 7720 nM | 9750 nM | 7150 nM | 9450 nM | 8880 nM | 150 to 151 °C
2 | CC1(c2ccc(O)cc2)C(=O)c2c(N3CCNCC3)cc(Cl)cc2N(Cc2ccc(-c3ccccc3)cc2)C1=O (stereo not shown) [Example 42, 1-Biphenyl-4-ylmethyl-7-chloro-3-(4-hydroxy-phenyl)-3-methyl-5-piperazin-1-yl-1H-quinoline-2,4-dione] | 164 nM | 16.1 nM | 6730 nM | 6640 nM | 8190 nM | 7600 nM | 6120 nM | 6850 nM | 9210 nM | 9410 nM | 240 to 241 °C
3 | CC1(c2ccc(Cl)cc2)C(=O)c2c(N3CCNCC3)cc(Cl)cc2N(Cc2ccccc2)C1=O (stereo not shown) [Example 19, 1-Benzyl-7-chloro-3-(4-chloro-phenyl)-3-methyl-5-piperazin-1-yl-1H-quinoline-2,4-dione] | 2.3 nM | 15.3 nM | 7570 nM | 6550 nM | 9100 nM | 6910 nM | 7040 nM | 8450 nM | 9140 nM | 8090 nM | 135 to 136 °C
4 | CC1(c2ccc(O)cc2)C(=O)c2c(N3CCNCC3)cc(Cl)cc2N(Cc2ccccc2Br)C1=O (stereo not shown) [Example 36, 1-(2-Bromo-benzyl)-7-chloro-3-(4-hydroxy-phenyl)-3-methyl-5-piperazin-1-yl-1H-quinoline-2,4-dione] | 29 nM | 15.1 nM | > 10000 nM | 9320 nM | 6210 nM | 7160 nM | 6030 nM | 7990 nM | 9610 nM | 9000 nM | 264 to 265 °C
5 | COc1ccc(C2(C)C(=O)c3c(N4CCNCC4)cc(Cl)cc3N(CC3CCCCC3)C2=O)cc1 (stereo not shown) [Example 48, 7-Chloro-1-cyclohexylmethyl-3-(4-methoxy-phenyl)-3-methyl-5-piperazin-1-yl-1H-quinoline-2,4-dione] | 251 nM | 16 nM | 8520 nM | 7540 nM | 5910 nM | 8660 nM | 7650 nM | 7510 nM | 8990 nM | 9010 nM | 127 to 128 °C
6 | CC1(c2ccc(O)cc2)C(=O)c2c(N3CCNCC3)cc(Cl)cc2N(CC2CCCCC2)C1=O (stereo not shown) [Example 49, 7-Chloro-1-cyclohexylmethyl-3-(4-hydroxy-phenyl)-3-methyl-5-piperazin-1-yl-1H-quinoline-2,4-dione] | 11.7 nM | 17.5 nM | 9510 nM | 6300 nM | 5810 nM | 7530 nM | 8140 nM | > 10000 nM | 8680 nM | 8780 nM | 175 to 176 °C
7 | COc1ccc(C2(C)C(=O)c3c(N4CCNCC4)cc(Cl)cc3N(Cc3cccnc3)C2=O)cc1 (stereo not shown) [Example 37, 7-Chloro-3-(4-methoxy-phenyl)-3-methyl-5-piperazin-1-yl-1-pyridin-3-ylmethyl-1H-quinoline-2,4-dione] | 21.4 nM | 19.8 nM | 5990 nM | 9060 nM | 6020 nM | 8050 nM | 7680 nM | 8050 nM | > 10000 nM | 9380 nM | 160 to 162 °C
8 | COc1ccc(C2(C)C(=O)c3c(N4CCNCC4)cc(Cl)cc3N(Cc3ccccc3OC)C2=O)cc1 (stereo not shown) [Example 29, 7-Chloro-1-(2-methoxy-benzyl)-3-(4-methoxy-phenyl)-3-methyl-5-piperazin-1-yl-1H-quinoline-2,4-dione] | 34.2 nM | 15 nM | 7500 nM | 7580 nM | 9150 nM | 8050 nM | 7810 nM | 9170 nM | 9410 nM | 9000 nM | 153 to 155 °C
